These molecules were tested on recombinant AMPK proteins (α1β1γ1, α2β1γ1, α1(1-335), α1(1-394) or α2(1-394)) (assay: Scintillation Proximity Assay (SPA), AMPK activation). Conditions: effective concentration of activator for 50% of maximal enzyme activity; 50 nM AMPK, 2 μM ATP, 2 μM biotin-SAMS, 30° C., 2 hours.
Assay type: biochemical, human
Protocol: Recombinant human AMPK α1β1γ1, α2β1γ1 or AMPK α subunit truncations α1(1-335), α1(1-394) and α2(1-394) were constructed, expressed and purified as described previously (Pang, T., Zhang, Z. S., Gu, M., Qiu, B. Y., Yu, L. F., Cao, P. R., Shao, W., Su, M. B., Li, J. Y., Nan, F. J., and Li, J. (2008). Rat liver AMPK heterotrimer enzyme was obtained from Upstate (Billerica, Mass., U.S.A.).
Scintillation Proximity Assay
Before the Scintillation Proximity Assay (SPA) assay, 200 nM recombinant AMPK proteins (α1β1γ1, α2β1γ1, α1(1-335), α1(1-394) or α2(1-394)) were fully phosphorylated as described previously (Pang et al., 2008). SPA reactions were performed in 96-well plates at a final volume of 50 μL containing 20 mM Tris-HCl pH 7.5, 5 mM MgCl2, 1 mM DTT, 2 μM biotin-SAMS, 2 μM ATP, 0.2 μCi/well [γ-^33P]ATP, and various amount of activator. Reactions were initiated by the addition of 50 nM recombinant AMPK proteins to the reaction solutions and incubated at 30° C. for 2 hours. After that, reactions were terminated by the addition of 40 μL stop solution containing 80 μg streptavidin-coated SPA beads per well, 50 mM ED TA, 0.1% Triton X-100 in PBS, pH 7.5 and incubated for 1 hour. Finally, a 160 μL suspension solution containing 2.4 M CsCl, 50 mM EDTA, and 0.1% Triton X-100 in PBS (pH 7.5) was added to the reaction solution to suspend SPA beads completely. SPA signals were determined with a Wallac MicroBeta plate counter (PerkinElmer) 30 min later for calculation of the amount of product formed. The amount of products formed in 2 hour was plotted against activator concentrations to determine the effective concentration of the activator (EC50) required for 50% of maximal enzyme activity.

Row | SMILES | EC50 [µM]
1 | CNC(=O)c1ccc2c(c1)C1(CC1)CC(c1cc(Cl)ccc1Cl)N2 (stereo not drawn) [Example 38, 2-(2,5-Dichloro-phenyl)-spiro(cyclopropane-1,4′-1′,2′,3′,4′-tetrahydroquinoline)-6-carboxylic acid methylamide] | 2.38
2 | O=C(NC1CCC1)c1ccc2c(c1)C1(CC1)CC(c1cc(Cl)cc(Cl)c1)N2 (stereo not drawn) [Example 43, 2-(3,5-Dichloro-phenyl)-spiro(cyclopropane-1,4′-1′,2′,3′,4′-tetrahydroquinoline)-6-carboxylic acid cyclobutylamide] | 5.86
3 | O=C(c1ccc2c(c1)C1(CC1)CC(c1cc(Cl)ccc1F)N2)N1CCOCC1 (stereo not drawn) [Example 44, [2-(5-Chloro-2-fluoro-phenyl)-spiro(cyclopropane-1,4′-1′,2′,3′,4′-tetrahydroquinolin)-6-yl]-morpholin-4-yl-methanone] | 3.02
4 | O=C(NC1CCC1)c1ccc2c(c1)C1(CC1)CC(c1cc(Cl)ccc1F)N2 (stereo not drawn) [Example 46, 2-(5-Chloro-2-fluoro-phenyl)-spiro(cyclopropane-1,4′-1′,2′,3′,4′-tetrahydroquinoline)-6-carboxylic acid cyclobutylamide] | 7.62
5 | O=C(c1ccc2c(c1)C1(CC1)CC(c1cc(F)ccc1Br)N2)N1CCNCC1 (stereo not drawn) [Example 48] | 2.1
6 | O=C(NC1CC1)c1ccc2c(c1)C1(CCCC1)CC(c1cc(F)ccc1Br)N2 (stereo not drawn) [Example 52, 2-(2-Bromo-5-fluoro-phenyl)-spiro(cyclopentane-1,4′-1′,2′,3′,4′-tetrahydroquinoline)-6-carboxylic acid cyclopropylamide] | 4.84
7 | CN1CCC(NC(=O)c2ccc3c(c2)C2(CCCC2)CC(c2cc(F)ccc2Br)N3)CC1 (stereo not drawn) [Example 53, 2-(2-Bromo-5-fluoro-phenyl)-spiro(cyclopentane-1,4′-1′,2′,3′,4′-tetrahydroquinoline)-6-carboxylic acid (1-methyl-piperidin-4-yl)-amide] | 1.38
8 | CNC(=O)c1ccc2c(c1)C1(CCCC1)CC(c1cc(F)ccc1Br)N2 (stereo not drawn) [Example 55, 2-(2-Bromo-5-fluoro-phenyl)-spiro(cyclopentane-1,4′-1′,2′,3′,4′-tetrahydroquinoline)-6-carboxylic acid methylamide] | 3.7
9 | CC(C)NC(=O)c1ccc2c(c1)C1(CCCC1)CC(c1cc(F)ccc1Br)N2 (stereo not drawn) [Example 60, 2-(2-Bromo-5-fluoro-phenyl)-spiro(cyclopentane-1,4′-1′,2′,3′,4′-tetrahydroquinoline)-6-carboxylic acid isopropylamide] | 4.41
10 | O=C(NC1CCC1)c1ccc2c(c1)C1(CCCC1)CC(c1cc(Cl)ccc1Cl)N2 (stereo not drawn) [Example 61, 2-(2,5-Dichloro-phenyl)-spiro(cyclopentane-1,4′-1′,2′,3′,4′-tetrahydroquinoline)-6-carboxylic acid cyclobutylamide] | 5.98
11 | O=C(NC1CCC1)c1ccc2c(c1)C1(CCCC1)CC(c1cccc(F)c1)N2 (stereo not drawn) [Example 62, 2-(3-Fluoro-phenyl)-spiro(cyclopentane-1,4′-1′,2′,3′,4′-tetrahydroquinoline)-6-carboxylic acid cyclobutylamide] | 1.59
12 | CNC(=O)c1ccc2c(c1)C1(CCCC1)CC(c1cccc(N3CCOCC3)c1)N2 (stereo not drawn) [Example 63, 2-(3-Morpholin-4-yl-phenyl)-spiro(cyclopentane-1,4′-1′,2′,3′,4′-tetrahydroquinoline)-6-carboxylic acid methylamide] | 2.37
13 | O=C(NC1CCC1)c1ccc2c(c1)C1(CCCC1)CC(c1cc(Cl)ccc1F)N2 (stereo not drawn) [Example 64, 2-(5-Chloro-2-fluoro-phenyl)-spiro(cyclopentane-1,4′-1′,2′,3′,4′-tetrahydroquinoline)-6-carboxylic acid cyclobutylamide] | 7.68
14 | CC1(C)CC(c2cc(Cl)ccc2Cl)Nc2ccc(C(=O)NC3CCC3)cc21 (stereo not drawn) [Example 66, 2-(2,5-Dichloro-phenyl)-4,4-dimethyl-1,2,3,4-tetrahydro-quinoline-6-carboxylic acid cyclobutylamide] | 5.53

The remaining molecules from weak to strong by EC50, led by results:

Row | EC50 [µM] | SMILES
15 | 13.9 | O=C(NC1CC1)c1ccc2c(c1)C1(CC1)CC(c1cc(Cl)ccc1Cl)N2 (stereo not drawn) [Example 37, 2-(2,5-Dichloro-phenyl)-spiro(cyclopropane-1,4′-1′,2′,3′,4′-tetrahydroquinoline)-6-carboxylic acid cyclopropylamide]
16 | 11.4 | CC(C)NC(=O)c1ccc2c(c1)C1(CC1)CC(c1cc(Cl)ccc1F)N2 (stereo not drawn) [Example 47, 2-(5-Chloro-2-fluoro-phenyl)-spiro(cyclopropane-1,4′-1′,2′,3′,4′-tetrahydroquinoline)-6-carboxylic acid isopropylamide]
17 | 11.3 | O=C(NC1COC1)c1ccc2c(c1)C1(CCCC1)CC(c1cc(F)ccc1Br)N2 (stereo not drawn) [Example 59, 2-(2-Bromo-5-fluoro-phenyl)-spiro(cyclopentane-1,4′-1′,2′,3′,4′-tetrahydroquinoline)-6-carboxylic acid oxetan-3-ylamide]
18 | 5.63 | O=C(NC1CCC1)c1ccc2c(c1)C1(CC1)CC(c1cc(Br)ccc1F)N2 (stereo not drawn) [Example 36, 2-(5-Bromo-2-fluoro-phenyl)-spiro(cyclopropane-1,4′-1′,2′,3′,4′-tetrahydroquinoline)-6-carboxylic acid cyclobutylamide]
19 | 5.17 | CC(C)NC(=O)c1ccc2c(c1)C1(CC1)CC(c1cc(Cl)ccc1Cl)N2 (stereo not drawn) [Example 41, 2-(2,5-Dichloro-phenyl)-spiro(cyclopropane-1,4′-1′,2′,3′,4′-tetrahydroquinoline)-6-carboxylic acid isopropylamide]
20 | 4.95 | O=C(NC1CCC1)c1ccc2c(c1)C1(CC1)CC(c1cc(Cl)ccc1Cl)N2 (stereo not drawn) [Example 39, 2-(2,5-Dichloro-phenyl)-spiro(cyclopropane-1,4′-1′,2′,3′,4′-tetrahydroquinoline)-6-carboxylic acid cyclobutylamide]
21 | 3.77 | CS(=O)(=O)N1CCN(C(=O)c2ccc3c(c2)C2(CC2)CC(c2cc(Cl)ccc2Cl)N3)CC1 (stereo not drawn) [Example 42, [2-(2,5-Dichloro-phenyl)-spiro(cyclopropane-1,4′-1′,2′,3′,4′-tetrahydroquinolin)-6-yl]-(4-methanesulfonyl-piperazin-1-yl)-methanone]
22 | 3.74 | CN1CCN(C(=O)c2ccc3c(c2)C2(CCCC2)CC(c2cc(F)ccc2Br)N3)CC1 (stereo not drawn) [Example 58, [2-(2-Bromo-5-fluoro-phenyl)-spiro(cyclopentane-1,4′-1′,2′,3′,4′-tetrahydroquinolin)-6-yl]-(4-methyl-piperazin-1-yl)-methanone]
23 | 3.69 | O=C(c1ccc2c(c1)C1(CC1)CC(c1cc(Cl)ccc1Cl)N2)N1CCOCC1 (stereo not drawn) [Example 40, [2-(2,5-Dichloro-phenyl)-spiro(cyclopropane-1,4′-1′,2′,3′,4′-tetrahydroquinolin)-6-yl]-morpholin-4-yl-methanone]
24 | 3.58 | CN(C)C(=O)c1ccc2c(c1)C1(CCCC1)CC(c1cc(F)ccc1Br)N2 (stereo not drawn) [Example 51, 2-(2-Bromo-5-fluoro-phenyl)-spiro(cyclopentane-1,4′-1′,2′,3′,4′-tetrahydroquinoline)-6-carboxylic acid dimethylamide]
25 | 3.38 | O=C(NCCO)c1ccc2c(c1)C1(CCCC1)CC(c1cc(F)ccc1Br)N2 (stereo not drawn) [Example 56, 2-(2-Bromo-5-fluoro-phenyl)-spiro(cyclopentane-1,4′-1′,2′,3′,4′-tetrahydroquinoline)-6-carboxylic acid (2-hydroxy-ethyl)-amide]
26 | 3.23 | CNC(=O)c1ccc2c(c1)C1(CC1)CC(c1c(C)cc(F)cc1Br)N2 (stereo not drawn) [Example 49, 2-(2-Bromo-4-fluoro-6-methyl-phenyl)-spiro(cyclopropane-1,4′-1′,2′,3′,4′-tetrahydroquinoline)-6-carboxylic acid methylamide]
27 | 2.87 | CN(C)C(=O)c1ccc2c(c1)C(C)(C)CC(C(C)(C)c1ccccc1)N2 (stereo not drawn) [Example 50, 4,4-Dimethyl-2-(1-methyl-1-phenyl-ethyl)-1,2,3,4-tetrahydro-quinoline-6-carboxylic acid dimethylamide]
28 | 2.61 | O=C(NC1CCC1)c1ccc2c(c1)C1(CCCC1)CC(c1cc(F)ccc1Br)N2 (stereo not drawn) [Example 54, 2-(2-Bromo-5-fluoro-phenyl)-spiro(cyclopentane-1,4′-1′,2′,3′,4′-tetrahydroquinoline)-6-carboxylic acid cyclobutylamide]
29 | 2.36 | O=C(c1ccc2c(c1)C1(CCCC1)CC(c1cc(F)ccc1Br)N2)N1CCOCC1 (stereo not drawn) [Example 57, [2-(2-Bromo-5-fluoro-phenyl)-spiro(cyclopentane-1,4′-1′,2′,3′,4′-tetrahydroquinolin)-6-yl]-morpholin-4-yl-methanone]
30 | 1.76 | CN(C)C(=O)c1ccc2c(c1)C1(CC1)CC(c1cc(Cl)ccc1F)N2 (stereo not drawn) [Example 45, 2-(5-Chloro-2-fluoro-phenyl)-spiro(cyclopropane-1,4′-1′,2′,3′,4′-tetrahydroquinoline)-6-carboxylic acid dimethylamide]

— patent US8592594B2, “Tetrahydro-quinoline derivatives” (Hoffmann-La Roche Inc., priority 2010, dated 2013)
